Assay results: ChEMBL document CHEMBL6120940, “Discovery of N-Aryl-N'-[4-(aryloxy)cyclohexyl]squaramide-Based Inhibitors of LXR/SREBP-1c Signaling Pathway Ameliorating Steatotic Liver Disease: Navigating the Role of SIRT6 Activation” (J Med Chem, 2024)
The source made the active and inactive calls. The calls are words filed in the database; no cut-off is given here.

Columns and labels:
[1] = tested on: HepG2; experiment: Cytotoxicity against human HepG2 cells at 10 uM measured after 24 hrs by CCK-8 method relative to control; type: functional
[2] = Stability in human plasma measured after 120 mins by LC-MS/MS analysis; type: ADME, cell-free; settings: read-out: Stability
[3] = Stability in rat plasma measured after 120 mins by LC-MS/MS analysis; type: ADME, cell-free; settings: read-out: Stability
[4] = biological target: CYP2C19 (Homo sapiens, UniProt P33261); experiment: Inhibition of CYP2C19 in human liver microsomes at 10 uM using S-mephenytoin as substrate preincubated for 5 mins followed by NADPH generating system addition and measured after 15 mins relative to control; type: ADME, Microsome; settings: probe S-mephenytoin, time 20 min
[5] = biological target: CYP3A4 (Homo sapiens, UniProt P08684); experiment: Inhibition of CYP3A4 in human liver microsomes at 10 uM using midazolam as substrate preincubated for 5 mins followed by NADPH generating system addition and measured after 15 mins relative to control; type: ADME, Microsome; settings: probe midazolam, time 20 min
[6] = biological target: Voltage-gated inwardly rectifying potassium channel KCNH2 (Homo sapiens, UniProt Q12809); experiment: Inhibition of human ERG expressing HEK cells by whole-cell patch clamp assay; type: toxicity, cell-based
[7] = AUC infinity in 16 hrs fasted ICR mouse at 2 mg/kg, iv measured upto 8 hrs by LC-MS/MS analysis; type: ADME, organism-based; settings: in vivo
[8] = Volume of distribution at steady state in 16 hrs fasted ICR mouse at 2 mg/kg, iv measured upto 8 hrs by LC-MS/MS analysis; type: ADME, organism-based; settings: in vivo, read-out: Vdss
[9] = Cmax in 16 hrs fasted ICR mouse at 20 mg/kg, po measured upto 8 hrs by LC-MS/MS analysis; type: ADME, organism-based; settings: in vivo
[10] = Terminal half life in 16 hrs fasted ICR mouse at 20 mg/kg, po measured upto 8 hrs by LC-MS/MS analysis; type: ADME, organism-based; settings: in vivo, read-out: beta t1/2 (converted)
[11] = Oral bioavailability in 16 hrs fasted ICR mouse at 20 mg/kg measured upto 8 hrs by LC-MS/MS analysis; type: ADME, organism-based; settings: in vivo
[12] = tested on: HepG2; experiment: Downregulation of FASN gene expression in human HepG2 cells in presence of T0901317 by RNA sequencing analysis; type: functional, cell-based
[13] = tested on: HepG2; experiment: Cytotoxicity against human HepG2 cells at >30 uM measured after 24 hrs by CCK-8 method; type: functional, cell-based
[14] = tested on: HepG2; experiment: Downregulation of SREBP-1c expression level in human HepG2 cells pretreated with compound for 30 mins followed by T0901317 addition and measured after 12 hrs by RT-qPCR analysis; type: functional, cell-based; settings: dose 5-10 µM, time 12.5 hrs
[15] = tested on: HepG2; experiment: Effect on SREBP-1a in human HepG2 cells at 10 uM pretreated with compound for 30 mins followed by T0901317 addition and measured after 12 hrs by immunoblot analysis; type: functional, cell-based; settings: time 12.5 hrs
[16] = tested on: HepG2; experiment: Downregulation of SREBP-1c expression level in human HepG2 cells at 10 uM pretreated with compound for 30 mins followed by T0901317 addition and measured after 12 hrs by immunocytochemical analysis; type: functional, cell-based; settings: time 12.5 hrs
[17] = tested on: HepG2; experiment: Downregulation of FASN mRNA level in human HepG2 cells at 10 uM pretreated with compound for 30 mins followed by T0901317 addition and measured after 12 hrs by RT-qPCR analysis; type: functional, cell-based; settings: time 12.5 hrs
[18] = tested on: HepG2; experiment: Downregulation of ACACA mRNA level in human HepG2 cells at 10 uM pretreated with compound for 30 mins followed by T0901317 addition and measured after 12 hrs by RT-qPCR analysis; type: functional, cell-based; settings: time 12.5 hrs
[19] = tested on: HepG2; experiment: Downregulation of SCD mRNA level in human HepG2 cells at 10 uM pretreated with compound for 30 mins followed by T0901317 addition and measured after 12 hrs by RT-qPCR analysis; type: functional, cell-based; settings: time 12.5 hrs
[20] = tested on: HepG2; experiment: Downregulation of FASN mRNA level in human HepG2 cells at 10 uM pretreated with compound for 30 mins followed by […] addition and measured after 12 hrs by RT-qPCR analysis; type: functional, cell-based; settings: time 12.5 hrs
[21] = tested on: HepG2; experiment: Downregulation of LXRalpha expression level in nucleus of human HepG2 cells at 10 uM preincubated with compound for 30 mins followed by T0901317 addition and measured after 24 hrs by immunoblot analysis; type: functional, cell-based; settings: time 24.5 hrs
[22] = tested on: Hepatocyte; experiment: Inhibition of LXR-induced fat accumulation in mouse Hepatocyte at 10 uM incubated for 30 mins followed by T0901317 addition by Oil red O staining based analysis; type: functional, cell-based
[23] = tested on: Hepatocyte; experiment: Inhibition of Fasn level in mouse hepatocyte at 10 uM preincubated with compound for 30 mins followed by T0901317 addition and measured after 12 hrs; type: functional, cell-based; settings: time 12.5 hrs
[24] = tested on: Hepatocyte; experiment: Inhibition of Scd level in mouse hepatocyte at 10 uM preincubated with compound for 30 mins followed by T0901317 addition and measured after 12 hrs; type: functional, cell-based; settings: time 12.5 hrs
[25] = tested on: HepG2; experiment: Lipid lowering effect on palmitic acid induced lipid accumulation in human HepG2 cells at 5 uM incubated for 30 mins by Oil red O staining based analysis; type: functional, cell-based
[26] = tested on: Hepatocyte; experiment: Effect on Acad-1 gene expression in mouse hepatocyte; type: functional, cell-based
[27] = tested on: HepG2; experiment: Downregulation of acetylated histone H3K9 level in human HepG2 cells preincubated for 30 mins followed by T0901317 addition and measured after 12 hrs; type: functional, cell-based; settings: dose 5-10 µM, time 12.5 hrs
[28] = tested on: HepG2; experiment: Downregulation of acetylated histone H3K9 level in human HepG2 cells preincubated for 30 mins followed by GW3965 addition and measured after 12 hrs; type: functional, cell-based; settings: dose 5-10 µM, time 12.5 hrs
[29] = tested on: HepG2; experiment: Downregulation of LXR level in human HepG2 cells at 10 uM preincubated for 30 mins followed by OSS128167 addition and measured after 12 hrs; type: functional, cell-based; settings: time 12.5 hrs
[30] = tested on: HepG2; experiment: Downregulation of SREBP-1c level in human HepG2 cells at 10 uM preincubated for 30 mins followed by OSS128167 addition and measured after 12 hrs; type: functional, cell-based; settings: time 12.5 hrs
[31] = tested on: HepG2; experiment: Downregulation of ACACA expression in human HepG2 cells at 5 uM pretreated with compound for 30 mins followed by T0901317 addition and measured after 12 hrs in presence of compound C by immunoblot analysis; type: functional, cell-based; settings: time 12.5 hrs
[32] = tested on: Mus musculus; experiment: Anti-lipogenic activity against high fat died induced male C57BL/6J mouse obesity model assessed as effect on body weight at 15 mg/kg, po administered three times per week and measured for 5 weeks; type: functional, organism-based
[33] = tested on: Mus musculus; experiment: Anti-lipogenic activity against high fat died induced male C57BL/6J mouse obesity model assessed as reduction in liver weight at 15 mg/kg, po administered three times per week and measured for 5 weeks; type: functional, organism-based
[34] = tested on: Mus musculus; experiment: Anti-lipogenic activity against high fat died induced male C57BL/6J mouse obesity model assessed as reduction AST level in serum at 15 mg/kg, po administered three times per week and measured for 5 weeks; type: functional, organism-based
[35] = tested on: Mus musculus; experiment: Anti-lipogenic activity against high fat died induced male C57BL/6J mouse obesity model assessed as reduction hepatic triglyceride level at 15 mg/kg, po administered three times per week and measured for 5 weeks by H and E staining based analysis; type: functional, organism-based
[36] = tested on: Mus musculus; experiment: Anti-lipogenic activity against high fat died induced male C57BL/6J mouse obesity model assessed as decrease in hepatic fat content at 15 mg/kg, po administered three times per week and measured for 5 weeks by Oil red O staining based analysis; type: functional, organism-based
[37] = tested on: Mus musculus; experiment: Anti-lipogenic activity against high fat died induced male C57BL/6J mouse obesity model assessed as downregulation of F4/80 mRNA level at 15 mg/kg, po administered three times per week and measured after 5 weeks by RT-qPCT analysis; type: functional, organism-based

Sequence of CYP3A4 (P08684 whole entry): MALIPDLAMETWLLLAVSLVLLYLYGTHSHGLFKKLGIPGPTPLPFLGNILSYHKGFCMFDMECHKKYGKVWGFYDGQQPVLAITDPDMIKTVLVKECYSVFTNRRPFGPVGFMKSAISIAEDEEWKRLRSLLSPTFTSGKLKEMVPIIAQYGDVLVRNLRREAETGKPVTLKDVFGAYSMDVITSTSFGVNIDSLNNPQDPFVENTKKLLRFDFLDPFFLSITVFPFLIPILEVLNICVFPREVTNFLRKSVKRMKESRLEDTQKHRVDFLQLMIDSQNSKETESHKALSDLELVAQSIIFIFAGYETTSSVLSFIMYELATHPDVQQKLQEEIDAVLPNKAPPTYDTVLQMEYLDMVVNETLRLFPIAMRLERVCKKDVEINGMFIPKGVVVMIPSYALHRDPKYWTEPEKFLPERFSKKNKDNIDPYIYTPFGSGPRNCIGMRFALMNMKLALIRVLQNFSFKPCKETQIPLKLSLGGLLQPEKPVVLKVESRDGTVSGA
Sequence of Voltage-gated inwardly rectifying potassium channel KCNH2 (Q12809 whole entry): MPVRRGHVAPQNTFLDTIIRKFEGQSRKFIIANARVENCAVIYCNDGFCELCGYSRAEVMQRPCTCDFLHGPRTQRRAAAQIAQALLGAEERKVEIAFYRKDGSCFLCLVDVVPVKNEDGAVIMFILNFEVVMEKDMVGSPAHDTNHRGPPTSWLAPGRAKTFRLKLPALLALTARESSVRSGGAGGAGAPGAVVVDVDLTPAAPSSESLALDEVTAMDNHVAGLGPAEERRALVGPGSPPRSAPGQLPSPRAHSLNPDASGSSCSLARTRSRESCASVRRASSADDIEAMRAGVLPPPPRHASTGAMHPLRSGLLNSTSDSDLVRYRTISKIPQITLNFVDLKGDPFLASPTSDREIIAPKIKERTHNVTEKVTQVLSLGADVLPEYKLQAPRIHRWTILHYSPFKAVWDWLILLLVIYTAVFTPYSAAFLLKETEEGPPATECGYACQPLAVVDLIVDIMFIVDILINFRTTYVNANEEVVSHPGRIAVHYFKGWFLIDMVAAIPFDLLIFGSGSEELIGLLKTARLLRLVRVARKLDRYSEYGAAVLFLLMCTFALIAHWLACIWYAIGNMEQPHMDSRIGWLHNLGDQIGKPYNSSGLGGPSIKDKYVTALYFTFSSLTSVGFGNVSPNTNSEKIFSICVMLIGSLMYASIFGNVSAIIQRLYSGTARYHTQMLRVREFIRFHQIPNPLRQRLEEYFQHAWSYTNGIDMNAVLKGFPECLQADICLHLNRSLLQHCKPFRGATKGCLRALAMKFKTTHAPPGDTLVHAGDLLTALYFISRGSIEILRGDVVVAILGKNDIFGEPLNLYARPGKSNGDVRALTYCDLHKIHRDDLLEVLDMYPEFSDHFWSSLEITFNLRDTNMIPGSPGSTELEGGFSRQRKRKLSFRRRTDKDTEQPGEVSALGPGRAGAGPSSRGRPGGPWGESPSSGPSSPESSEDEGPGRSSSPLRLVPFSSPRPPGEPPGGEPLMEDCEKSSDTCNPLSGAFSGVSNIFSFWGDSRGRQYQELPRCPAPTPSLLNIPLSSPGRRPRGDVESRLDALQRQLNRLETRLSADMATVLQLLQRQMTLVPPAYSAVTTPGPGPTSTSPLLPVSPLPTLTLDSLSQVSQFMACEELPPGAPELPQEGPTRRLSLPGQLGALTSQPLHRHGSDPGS
Sequence of CYP2C19 (P33261 whole entry): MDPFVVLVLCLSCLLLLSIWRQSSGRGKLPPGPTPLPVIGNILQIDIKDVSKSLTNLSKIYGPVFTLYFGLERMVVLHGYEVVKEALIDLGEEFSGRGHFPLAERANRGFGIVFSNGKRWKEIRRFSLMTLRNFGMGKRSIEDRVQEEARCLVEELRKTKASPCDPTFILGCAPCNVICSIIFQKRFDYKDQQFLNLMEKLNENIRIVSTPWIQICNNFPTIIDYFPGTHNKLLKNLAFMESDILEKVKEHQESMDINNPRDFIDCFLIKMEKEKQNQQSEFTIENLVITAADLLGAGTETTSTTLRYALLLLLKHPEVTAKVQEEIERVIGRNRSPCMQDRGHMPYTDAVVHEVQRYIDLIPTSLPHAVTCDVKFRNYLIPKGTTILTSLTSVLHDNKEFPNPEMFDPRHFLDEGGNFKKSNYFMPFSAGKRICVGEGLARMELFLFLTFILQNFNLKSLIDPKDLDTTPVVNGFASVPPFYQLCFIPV

remaining at 2 h [2]: 94.6%
remaining at 2 h [3]: 96.2%
inhibition at 0.25 h, 10 µM [4]: 41.1%
inhibition at 0.25 h, 10 µM [5]: 91.6%
AUC(0-inf) [7]: 2400 ng·h/mL
Vd [8]: 1.1 L/kg
Cmax [9]: 2300 ng/mL
half-life [10]: 84 min
bioavailability [11]: 11.2%
Compound: COc1ccccc1Nc1c(N[C@H]2CC[C@H](Oc3ccc([N+](=O)[O-])cc3)CC2)c(=O)c1=O
Activity [1]: 90.3%
IC50 [6]: 33.2 µM
Activity [12]: Active
Activity [13]: Active
Activity [14]: Dose-dependent-effect
Activity [15]: inactive
Activity [16]: Active
Activity [17]: Active
Activity [18]: Active
Activity [19]: Active
Activity [20]: Active
Activity [21]: Active
inhibition [22]: Active
inhibition [23]: Active
inhibition [24]: Active
Activity [25]: Active
Activity [26]: inactive
Activity [27]: Dose-dependent-effect
Activity [28]: Dose-dependent-effect
Activity [29]: inactive
Activity [30]: inactive
Activity [31]: inactive
Activity [32]: inactive
Activity [33]: Active
Activity [34]: Active
Activity [35]: Active
Activity [36]: Active
Activity [37]: Active
